The values below come from ChEMBL document CHEMBL5338823, “Discovery of Novel 5,6-Dihydro-1,2,4-triazine Derivatives as Efficacious Glucagon-Like Peptide-1 Receptor Agonists” (J Med Chem, 2023).

The structures appear in SMILES notation. Calls of active or inactive are those of the source. Some results are limits rather than exact numbers.

A word on the IC50: it is the midpoint of a concentration-inhibition curve. By half-life is commonly meant the time needed for the level to fall by half in the phase considered. A word on the inhibition: it is how much of the control response was suppressed. Higher therefore signals a response far below the control. Usually Papp A→B stands for how fast a substance crosses the layer from the apical side. For orientation: EC50 means the concentration giving half of the maximal effect.

Data set [1] can be described thus: Drug concentration in C57BL/6J mouse plasma at 5 mg/kg, po measured after 4 hrs by LC-MS/MS analysis. Type of data set: ADME, organism-based.
A short description of data set [2]: Stability in rat liver microsomes assessed as intrinsic clearance at 1 uM measured upto 60 mins in the presence of NADPH by LC-MS/MS analysis. Type of data set: ADME, Microsome. The note with it: 1 h.
Data set [3] addresses Voltage-gated inwardly rectifying potassium channel KCNH2 (Homo sapiens, UniProt Q12809). Kind of data set: Inhibition of hERG. For orientation: hERG is a cardiac potassium channel; its block is linked to QT prolongation.
Data set [4] is described as follows: Stability in human liver microsomes assessed as intrinsic clearance at 1 uM measured upto 60 mins in the presence of NADPH by LC-MS/MS analysis. Type of data set: ADME, Microsome. The note with it: 1 h. On the technique in general: Microsomes from liver hold many membrane-bound enzymes, among them those of drug oxidation.
Data set [5] can be described thus: Stability in rat liver microsomes assessed as half-life at 1 uM measured upto 60 mins in the presence of NADPH by LC-MS/MS analysis. Format: ADME, Microsome.
Data set [6] is described as follows: Stability in human liver microsomes assessed as half-life at 1 uM measured upto 60 mins in the presence of NADPH by LC-MS/MS analysis. Format: ADME, Microsome.
Data set [7] can be described thus: Stability in mouse liver microsomes assessed as half-life at 1 uM measured upto 60 mins in the presence of NADPH by LC-MS/MS analysis. Format: ADME, Microsome.
The target of data set [8] is T1, hERG (KCNH2) (Homo sapiens, UniProt Q12809). Kind of data set: Inhibition of hERG at 40 uM relative to control.
A short description of data set [9]: Apparent permeability across apical to basolateral side in human Caco-2 cells at 10 uM measured after 95 mins by LC-MS/MS analysis. Type of data set: ADME, cell-based.
A short description of data set [10]: Drug concentration in C57BL/6J mouse plasma at 5 mg/kg, po measured after 1 hrs by LC-MS/MS analysis. Format: ADME, organism-based.
Data set [11] can be described thus: Stability in mouse liver microsomes assessed as intrinsic clearance at 1 uM measured upto 60 mins in the presence of NADPH by LC-MS/MS analysis. The note with it: 1 h. Format: ADME, Microsome.
For data set [12], the target named is Glucagon-like peptide 1 receptor (Homo sapiens, UniProt P43220). Kind of data set: Agonist activity at N-terminal HA-tagged human GLP-1R expressed in HEK293 cells assessed as effect on intracellular cAMP accumulation incubated for 30 mins by LANCA ultra cAMP assay. Format: functional, cell-based.
For data set [13], the system named is Mus musculus. Kind of data set: In vivo agonist activity at GLP-1R in C57BL/6J mouse with human GLP-1R knock-in assessed as reduction in blood glucose level at 1 mg/kg, po pre-treated with compound for 1 hrs followed by glucose administration and measured upto 90 mins by Oral Glucose Tolerance Test. Type of data set: functional, organism-based. The note with it: time <= 150.0 min.

Data set [14] concerns Mus musculus. Briefly: In vivo agonist activity at GLP-1R in C57BL/6J mouse with human GLP-1R knock-in assessed as reduction in food intake at 30 mg/kg, sc measured after 2.5 to 12 hrs in dark cycle. Format: functional, organism-based. The note with it: time 2.5-12 hrs.
Data set [15] deals with T2, Glucagon-like peptide 1 receptor (Mus musculus) (UniProt O35659).
T2 sequence (whole entry): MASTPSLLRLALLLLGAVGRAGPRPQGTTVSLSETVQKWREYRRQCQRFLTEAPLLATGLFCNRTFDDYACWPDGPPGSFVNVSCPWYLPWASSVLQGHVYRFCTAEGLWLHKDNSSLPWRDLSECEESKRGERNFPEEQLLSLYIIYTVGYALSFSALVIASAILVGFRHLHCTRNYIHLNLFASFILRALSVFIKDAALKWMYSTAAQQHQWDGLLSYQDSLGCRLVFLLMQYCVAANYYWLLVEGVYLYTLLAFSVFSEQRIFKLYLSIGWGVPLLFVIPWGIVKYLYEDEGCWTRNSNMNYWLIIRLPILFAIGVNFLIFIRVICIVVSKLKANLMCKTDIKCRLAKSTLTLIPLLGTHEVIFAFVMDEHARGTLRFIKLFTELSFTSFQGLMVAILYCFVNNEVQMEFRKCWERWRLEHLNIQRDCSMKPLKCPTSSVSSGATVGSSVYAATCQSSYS
Kind of data set: Activation of mouse GLP-1R.

Data set [16] has as its target T1, hERG (KCNH2). Kind of data set: Inhibition of hERG at 3 uM relative to control.

Sequence of Glucagon-like peptide 1 receptor (P43220 whole entry): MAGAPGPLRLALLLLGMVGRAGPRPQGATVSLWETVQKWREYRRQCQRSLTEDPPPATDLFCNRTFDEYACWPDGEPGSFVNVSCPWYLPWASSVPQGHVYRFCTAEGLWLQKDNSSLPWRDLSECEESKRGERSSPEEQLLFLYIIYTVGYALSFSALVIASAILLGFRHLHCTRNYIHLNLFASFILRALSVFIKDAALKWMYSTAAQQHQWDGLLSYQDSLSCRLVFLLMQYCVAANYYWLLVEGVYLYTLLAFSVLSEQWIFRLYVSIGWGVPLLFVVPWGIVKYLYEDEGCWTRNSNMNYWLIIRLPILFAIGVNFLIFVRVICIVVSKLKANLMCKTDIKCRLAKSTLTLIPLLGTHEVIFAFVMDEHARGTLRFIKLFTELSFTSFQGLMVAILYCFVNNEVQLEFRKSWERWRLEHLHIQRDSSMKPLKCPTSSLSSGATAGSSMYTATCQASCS
T1 sequence (Q12809 whole entry): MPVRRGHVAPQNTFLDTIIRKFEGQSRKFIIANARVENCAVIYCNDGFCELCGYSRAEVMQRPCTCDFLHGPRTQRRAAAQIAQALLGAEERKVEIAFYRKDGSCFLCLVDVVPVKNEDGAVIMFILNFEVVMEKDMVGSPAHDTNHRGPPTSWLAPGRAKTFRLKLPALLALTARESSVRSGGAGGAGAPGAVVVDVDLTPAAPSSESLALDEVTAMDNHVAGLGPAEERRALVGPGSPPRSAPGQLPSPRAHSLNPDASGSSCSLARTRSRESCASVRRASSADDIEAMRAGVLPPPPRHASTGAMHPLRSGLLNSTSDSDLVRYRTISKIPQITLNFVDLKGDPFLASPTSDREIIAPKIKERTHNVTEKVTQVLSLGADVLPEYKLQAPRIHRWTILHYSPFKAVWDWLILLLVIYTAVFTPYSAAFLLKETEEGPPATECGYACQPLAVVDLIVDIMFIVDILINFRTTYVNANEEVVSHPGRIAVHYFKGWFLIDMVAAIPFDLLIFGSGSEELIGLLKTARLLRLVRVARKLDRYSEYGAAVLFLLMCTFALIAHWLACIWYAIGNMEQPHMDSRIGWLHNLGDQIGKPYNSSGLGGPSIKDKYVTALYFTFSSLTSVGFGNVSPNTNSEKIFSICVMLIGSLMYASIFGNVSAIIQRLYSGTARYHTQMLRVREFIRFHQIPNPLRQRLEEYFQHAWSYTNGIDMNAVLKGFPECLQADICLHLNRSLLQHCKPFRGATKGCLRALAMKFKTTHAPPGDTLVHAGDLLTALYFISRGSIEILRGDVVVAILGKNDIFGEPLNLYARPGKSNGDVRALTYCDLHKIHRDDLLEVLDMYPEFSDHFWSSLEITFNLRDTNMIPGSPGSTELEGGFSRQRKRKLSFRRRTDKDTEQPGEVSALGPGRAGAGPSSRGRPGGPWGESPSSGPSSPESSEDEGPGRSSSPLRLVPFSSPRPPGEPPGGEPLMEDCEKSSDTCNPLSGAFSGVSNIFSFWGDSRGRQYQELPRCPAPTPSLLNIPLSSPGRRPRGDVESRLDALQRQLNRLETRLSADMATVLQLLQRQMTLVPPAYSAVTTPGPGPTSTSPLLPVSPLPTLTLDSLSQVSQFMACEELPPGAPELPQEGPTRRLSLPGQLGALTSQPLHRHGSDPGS
Sequence of Voltage-gated inwardly rectifying potassium channel KCNH2 (Q12809 whole entry): as above

`COc1cc(C#N)ccc1COc1cccc(N2C=NN(Cc3nc4c(F)cc(C(=O)O)cc4n3C[C@@H]3CCO3)CC2)n1` returned a concentration at 4 h in data set [1] of 3 ng/mL. Also, the CLH was found to be 16 mL/min/g in data set [2], 6 mL/min/g in data set [4] and 12 mL/min/g in data set [11]. Besides, the IC50 in data set [3] was over 40 µM. Also, the results for the half-life at 1 µM in data set [5], in [6] and in [7] were 2.23 h, 5.45 h and 3.03 h, respectively. The compound further yielded an inhibition at 40 µM in [8] of 50%. Also, the Papp A→B at 1.583 h, 10 µM in [9] turned out to be 0.19 ×10⁻⁶ cm/s. Further, the concentration at 1 h in [10] came to 12 ng/mL.

In the case of `CC1CN(c2cccc(OCc3ccc(C#N)cc3F)n2)C=NN1Cc1nc2ccc(C(=O)O)cc2n1C[C@@H]1CCO1` (stereo partly specified), the EC50 in data set [12] came to 0.0006 µM.

On to `O=C(O)c1ccc2nc(Cn3ccc(-c4cccc(OCc5ccc(Cl)cc5F)n4)nc3=O)n(C[C@@H]3CCO3)c2c1`, for which the EC50 in data set [12] is over 10 µM.

As for `N#Cc1ccc(COc2cccc(OC3CCN(Cc4nc5ccc(C(=O)O)cc5n4C[C@@H]4CCO4)CC3)n2)c(F)c1`, the EC50 in [12] came out at 0.0007 µM.

Take `N#Cc1ccc(COc2cccc(N3C=NN(Cc4nc5c(F)cc(C(=O)O)cc5n4C[C@@H]4CCO4)CC3)n2)c2occc12`: the results for the CLH in [2], in [4] and in [11] were 33 mL/min/g, 14 mL/min/g and 17 mL/min/g, respectively. Also, in data set [3], the IC50 is over 40 µM. In addition, the half-life at 1 µM in [5] worked out at 1.05 h; in data set [6], 2.48 h; in data set [7] it was 2.07 h. Moreover, the inhibition at 40 µM in data set [8] stood at 30%.

Turning to `N#Cc1ccc(COc2cccc(N3C[C@H]4CN(Cc5nc6ccc(C(=O)O)cc6n5C[C@@H]5CCO5)C[C@H]4C3)n2)c(F)c1`, the EC50 in [12] was over 10 µM.

Turning to `COc1cc(Cl)ccc1COc1cccc(N2C=NN(Cc3nc4c(F)cc(C(=O)O)cc4n3C[C@@H]3CCO3)CC2)n1`, the CLH in [2] was determined as 45 mL/min/g; in data set [4], 21 mL/min/g; in data set [11], 49 mL/min/g. The compound further registered an IC50 in data set [3] of over 40 µM. The half-life at 1 µM in data set [5] worked out at 0.783 h; in data set [6], 1.67 h; in data set [7] it was 0.717 h. Also, at 40 µM the inhibition in data set [8] was 44%.

As to `O=C(O)c1cc(F)c2nc(CN3CCN(c4cccc(OCc5ccc(Cl)c6c5OCC6)n4)C=N3)n(C[C@@H]3CCO3)c2c1`, the CLH is 59 mL/min/g in data set [2], 23 mL/min/g in data set [4] and 67 mL/min/g in data set [11]. In data set [3], this compound showed an IC50 of 0.05 µM. Further, the figures for the half-life at 1 µM in data set [5], in data set [6] and in data set [7] were 0.6 h, 1.5 h and 0.517 h, respectively. The inhibition at 40 µM in data set [8] is 51%.

Regarding `N#Cc1ccc(COc2cccc(C3CCN(Cc4nc5ccc(C(=O)O)cc5n4C[C@@H]4CCO4)CC3)n2)c(F)c1` [DANUGLIPRON], the result in data set [13] and in [14] was Active. Besides, the CLH in [2] came out at 13 mL/min/g; in data set [4] it was 5 mL/min/g; in data set [11], 13 mL/min/g. In addition, the half-life at 1 µM was found to be 2.72 h in [5], 6.92 h in data set [6] and 2.8 h in data set [7]. In data set [15], the result was inactive. In data set [8], at 40 µM the inhibition was 90%.

For `O=C(O)c1cc(F)c2nc(CN3CCN(c4cccc(OCc5ccc(Cl)c6cc(F)oc56)n4)C=N3)n(C[C@@H]3CCO3)c2c1`, the CLH in [2] came out at 22 mL/min/g; in data set [4], 13 mL/min/g; in [11], 21 mL/min/g. Moreover, the half-life at 1 µM is 1.58 h in [5], 2.77 h in data set [6] and 1.72 h in data set [7].

In data set [16], `COc1cc(N)c(Cl)cc1C(=O)N[C@H]1CCN(CCCOc2ccc(F)cc2)C[C@H]1OC` [REL-CISAPRIDE] returned an inhibition at 3 µM of 92%.

In the case of `N#Cc1ccc(COc2cccc(N3CCC(NCc4nc5ccc(C(=O)O)cc5n4C[C@@H]4CCO4)CC3)n2)c(F)c1`, the EC50 in [12] came to 0.153 µM.

Consider `N#Cc1ccc(COc2cccc(N3C=NN(Cc4nc5ccc(C(=O)O)cc5n4C[C@@H]4CCO4)CC3)n2)c(F)c1`, for which, in data set [3], the IC50 was over 40 µM. In addition, testing at 40 µM in [8] gave an inhibition of 48%.

Take `N#Cc1ccc(COc2cccc(N3CCC4(CN(Cc5nc6ccc(C(=O)O)cc6n5C[C@@H]5CCO5)C4)C3)n2)c(F)c1`: the EC50 in [12] turned out to be 5.01 µM.

With `N#Cc1ccc(COc2cccc(N3CC4(CC3=O)CN(Cc3nc5ccc(C(=O)O)cc5n3C[C@@H]3CCO3)C4)n2)c(F)c1`, in data set [12], the EC50 was over 10 µM.
